Active and inactive are the calls of the source. The rule behind the calls is not given here.

This data set relates to CCRIS mutagenicity, Ames/micronucleus/aberration tests. Put plainly: CCRIS mutagenicity studies.
Setting [1] is: Test System: AMES SALMONELLA TYPHIMURIUM, Strain/Indicator: TA98, Metabolic Activation: NONE, Method: PREINCUBATION
Where [2] appears, read: Test System: AMES SALMONELLA TYPHIMURIUM, Strain/Indicator: TA98, Metabolic Activation: NONE, Method: STANDARD PLATE.
Where [3] appears, read: Test System: AMES SALMONELLA TYPHIMURIUM, Strain/Indicator: TA100, Metabolic Activation: NONE, Method: PREINCUBATION
Setting [4] is: Test System: AMES SALMONELLA TYPHIMURIUM, Strain/Indicator: TA100, Metabolic Activation: NONE, Method: STANDARD PLATE.

With `C[C@]1(Cn2ccnn2)[C@H](C(=O)O)N2C(=O)C[C@H]2S1(=O)=O`, the mutagenic call (Test System: AMES SALMONELLA TYPHIMURIUM, Strain/Indicator: TA98, Metabolic Activation: HAMSTER, LIVER, S-9, AROCLOR 1254, Method: STANDARD PLATE) was “inactive; negative”; the mutagenic call under setting [1] was “inactive; negative”; the mutagenic call under setting [2] was “inactive; negative”; the mutagenic call (Test System: AMES SALMONELLA TYPHIMURIUM, Strain/Indicator: TA98, Metabolic Activation: S-9, Method: PREINCUBATION) is “inactive; negative”; the mutagenic call (Test System: AMES SALMONELLA TYPHIMURIUM, Strain/Indicator: TA100, Metabolic Activation: HAMSTER, LIVER, S-9, AROCLOR 1254, Method: STANDARD PLATE) is “inactive; negative”; the mutagenic call under setting [3] is “inactive; negative”. Also, the mutagenic call is, setting by setting: under setting [4], “inactive; negative”; (Test System: AMES SALMONELLA TYPHIMURIUM, Strain/Indicator: TA100, Metabolic Activation: S-9, Method: PREINCUBATION) “inactive; negative”; (Test System: AMES SALMONELLA TYPHIMURIUM, Strain/Indicator: TA102, Metabolic Activation: HAMSTER, LIVER, S-9, AROCLOR 1254, Method: STANDARD PLATE) “inactive; negative”; (Test System: AMES SALMONELLA TYPHIMURIUM, Strain/Indicator: TA102, Metabolic Activation: NONE, Method: STANDARD PLATE) “inactive; negative”; (Test System: AMES SALMONELLA TYPHIMURIUM, Strain/Indicator: TA1535, Metabolic Activation: NONE, Method: PREINCUBATION) “inactive; negative”; (Test System: AMES SALMONELLA TYPHIMURIUM, Strain/Indicator: TA1535, Metabolic Activation: S-9, Method: PREINCUBATION) “inactive; negative”. Further, the mutagenic call by setting is: (Test System: AMES SALMONELLA TYPHIMURIUM, Strain/Indicator: TA1537, Metabolic Activation: NONE, Method: PREINCUBATION) “inactive; negative”; (Test System: AMES SALMONELLA TYPHIMURIUM, Strain/Indicator: TA1537, Metabolic Activation: S-9, Method: PREINCUBATION) “inactive; negative”; (Test System: E. COLI, Strain/Indicator: WP2 UVRA, Metabolic Activation: NONE, Method: PREINCUBATION) “inactive; negative”; (Test System: E. COLI, Strain/Indicator: WP2 UVRA, Metabolic Activation: S-9, Method: PREINCUBATION) “inactive; negative”.
For `Oc1c2c(c3c(ccc4c3ccc3ccc5ccccc5c34)c1O)O2`, the mutagenic call (Test System: AMES SALMONELLA TYPHIMURIUM, Strain/Indicator: TA97, Metabolic Activation: NONE, Method: PREINCUBATION) is “active; positive”; the mutagenic call under setting [1] is “active; positive”; the mutagenic call under setting [3] was “active; positive”; the mutagenic call (Test System: AMES SALMONELLA TYPHIMURIUM, Strain/Indicator: TA104, Metabolic Activation: NONE, Method: PREINCUBATION) was “active; positive”; the mutagenic call (Test System: CHINESE HAMSTER V-79, Strain/Indicator: V-79/6-THIOGUANINE, Metabolic Activation: NONE) was “active; positive”.
Turning to `O=P(O)(O)Oc1c(Br)cc(Br)cc1-c1cc(Br)cc(Br)c1O`, the mutagenic call reads like this: under setting [2], “inactive; negative”; (Test System: AMES SALMONELLA TYPHIMURIUM, Strain/Indicator: TA98, Metabolic Activation: RAT, LIVER, S-9, KANECHLOR 400, Method: STANDARD PLATE) “inactive; negative”; under setting [4], “inactive; negative”; (Test System: AMES SALMONELLA TYPHIMURIUM, Strain/Indicator: TA100, Metabolic Activation: RAT, LIVER, S-9, KANECHLOR 400, Method: STANDARD PLATE) “inactive; negative”; (Test System: AMES SALMONELLA TYPHIMURIUM, Strain/Indicator: TA1535, Metabolic Activation: NONE, Method: STANDARD PLATE) “inactive; negative”; (Test System: AMES SALMONELLA TYPHIMURIUM, Strain/Indicator: TA1535, Metabolic Activation: RAT, LIVER, S-9, KANECHLOR 400, Method: STANDARD PLATE) “inactive; negative”. For the same compound, the mutagenic call is, setting by setting: (Test System: AMES SALMONELLA TYPHIMURIUM, Strain/Indicator: TA1537, Metabolic Activation: NONE, Method: STANDARD PLATE) “inactive; negative”; (Test System: AMES SALMONELLA TYPHIMURIUM, Strain/Indicator: TA1537, Metabolic Activation: RAT, LIVER, S-9, KANECHLOR 400, Method: STANDARD PLATE) “inactive; negative”; (Test System: AMES SALMONELLA TYPHIMURIUM, Strain/Indicator: TA1538, Metabolic Activation: NONE, Method: STANDARD PLATE) “inactive; negative”; (Test System: AMES SALMONELLA TYPHIMURIUM, Strain/Indicator: TA1538, Metabolic Activation: RAT, LIVER, S-9, KANECHLOR 400, Method: STANDARD PLATE) “inactive; negative”.
